The record followed here is patent US10584116B2, “Heterocyclic sulfonamide derivative and medicine containing same” (EA Pharma Co., Ltd., priority 2016, dated 2020).

One assay has as its target TRPA1 channel (Rattus norvegicus (Rat), UniProt Q6RI86). The experiment in a line: AITC-induced rat blood flow evaluation test. In kind it is in vivo. The following applies: for rat blood flow model (% inh.): oral, 60 min before AITC (1%) application to ear, male SD rats. How it is done: AITC-Induced Rat Blood Flow Evaluation Test
To evaluate the effectiveness of the test substance in vivo, allylisothiocyanate (AITC)-induced blood flow evaluation test was performed using rat.
AITC is a selective agonist of the TRPA1 channel, and causes an increase in the peripheral blood flow through TRPA1 activation when applied to animal. Therefore, the intensity of the TRPA1 antagonist action of the test substance in the living body can be evaluated by measuring the increase in the peripheral blood flow after AITC application.
1. Administration of Test Substance to Animal
As the animal, 9-11-week-old male SD rats were used. A test substance was orally administered 60 min before AITC application and evaluated. On the previous day, the blood flow was measured when vehicle was administered to the same individual.
2. Evaluation of AITC-Induced Blood Flow
Under isoflurane anesthesia, the rats were placed in a prone position and a laser was irradiated with a probe of a laser Doppler flowmeter (OMEGA FLOW FLO-N1 neuro science, inc) at a distance of 1 cm from the ear of the rat, and the blood flow was measured, which was recorded using Power lab. After confirmation of stable blood flow, 15 μL of AITC (1%) solution was applied to be spread on the ear of the rat and the blood flow was measured for 20 min.
3. Calculatuin of Inhibitory Rate
Mean blood flow for 10 seconds at each analysis time point (1, 5, 10, 15, 20 min) was calculated, and the amount of change from the blood flow before AITC application was calculated as AUC (Area under the curve). AUC (% of baseline) was determined by normalizing the value obtained by (mean of AUC after test substance administration/mean of AUC after vehicle administration to the same individual)×100 with the ratio of AUC obtained by vehicle administration for the both days. The inhibition ratio was determined by 100−AUC (% of baseline).

The next assay addresses human TRPA1 (Homo sapiens (Human), UniProt O75762). The experiment in a line: Measurement of TRPA1 antagonist activity (intracellular calcium increase induced by allylisothiocyanate in 293T cells transfected with human TRPA1). Type of assay: cell-based. The settings on record: 293T cells expressing human TRPA1, allylisothiocyanate stimulation, FLIPR Calcium4 fluorescence; read-out: hTRPA1 IC50. How it is done: Measurement of TRPA1 Antagonist Activity
Human TRPA1 Expression Plasmid
Using cDNA encoding human TRPA1 (GenBank accession No. NM_007332) (manufactured by Kazusa DNA Research Institute, item No. FHC07217) as a template, primer 1 (SEQ ID NO: 1) and primer 2 (SEQ ID NO: 2), PCR by PfuUltra High-Fidelity DNA Polymerase (Stratagene) was performed, and full-length human TRPA1 gene was amplified.
A recognition site (underlined) of restriction enzyme HindIII was added to the 5′ end of human TRPA1 gene, and XbaI site (underlined) was added to the 3′ end of human TRPA1 gene, and GTT of the template sequence was changed to termination codon TAG (bold). The obtained double stranded DNA was enzyme-digested with HindIII and XbaI, and introduced into a multicloning site of expression plasmid pcDNA3.1/zeo(+) (manufactured by Invitrogen) to give a human TRPA1 expression plasmid.
Human embryonic kidney-derived 293T cells were cultured in Dulbecco's Modified Eagle Medium containing 10% fetal bovine serum, 10 unit penicillin, and 10 μg streptomycin. One day before assay, 3×10^6 of 293T cells were plated on a petri dish having a diameter of 10 cm, and cultured in a CO2 incubator for 24 hr. OPTI-MEM I Reduced Serum Media (Invitrogen) (600 μL), Mirus TransIT-293 (Mirus Bio) (18 μL), and human TRPA1 expression plasmid (6 μg) were mixed, the total amount of the mixture was added to the cells on the petri dish to allow for gene transfer. The cells were recovered about for 8 hr later, plated on a poly-D-lysine coated 384 well black/clear bottom plate at 12,000 cells/well, and cultured overnight.
Measurement of Intracellular Calcium Increase
The medium was removed from the 384 well plate, calcium indicator (Molecular Device, trade name: FLIPR Calcium4 Assay Kit) dissolved in HBSS (Thermo Fisher Scientific) (pH 7.2) containing 20 mM HEPES was added (38 μL/well), and the cells were stained in a CO2 incubator for 1 hr. The 384 well plate was stood at room temperature for not less than 15 min, set on FDSS7000 (Hamamatsu Photonics K.K.), and a test substance solution was added at 10 μL/well. After 10 min, allylisothiocyanate solution (12 μL/well) was added, the relative fluorescence intensity was measured for 5 min after addition of the allylisothiocyanate solution.
Test Substance Preparation
Preparation of Test Substance Solution and Allylisothiocyanate Solution
A test substance solution was prepared to have a composition of HBSS (Thermo Fisher Scientific) (pH 7.2) containing 0.48% dimethyl sulfoxide, a test substance at 4.8-fold concentration of the evaluation concentration, 0.1% bovine serum albumin and 20 mM HEPES. An allylisothiocyanate solution was prepared to have a composition of HBSS (Thermo Fisher Scientific) (pH 7.2) containing 0.1% dimethyl sulfoxide, 100 μM allylisothiocyanate, 0.1% bovine serum albumin and 20 mM HEPES.
Calculation of Antagonist Activity
The activity rate of a test substance at each concentration was calculated, wherein the relative fluorescence intensity change of a well free of a test substance and containing allylisothiocyanate is 100% activity rate, and the relative fluorescence intensity change of a well free of a test substance and allylisothiocyanate is 0% activity rate. The inhibitory rate of a test substance at each concentration was calculated by subtracting the activity rate of the test substance from 100% activity rate, and the concentration of a test substance showing 50% inhibitory rate was calculated as IC50 from the sigmoid approximate curve by XLfit (idbs).
Background: Calcium flux is commonly read through the fluorescence of an indicator in the cells.

Chain of TRPA1 channel (Q6RI86 whole entry): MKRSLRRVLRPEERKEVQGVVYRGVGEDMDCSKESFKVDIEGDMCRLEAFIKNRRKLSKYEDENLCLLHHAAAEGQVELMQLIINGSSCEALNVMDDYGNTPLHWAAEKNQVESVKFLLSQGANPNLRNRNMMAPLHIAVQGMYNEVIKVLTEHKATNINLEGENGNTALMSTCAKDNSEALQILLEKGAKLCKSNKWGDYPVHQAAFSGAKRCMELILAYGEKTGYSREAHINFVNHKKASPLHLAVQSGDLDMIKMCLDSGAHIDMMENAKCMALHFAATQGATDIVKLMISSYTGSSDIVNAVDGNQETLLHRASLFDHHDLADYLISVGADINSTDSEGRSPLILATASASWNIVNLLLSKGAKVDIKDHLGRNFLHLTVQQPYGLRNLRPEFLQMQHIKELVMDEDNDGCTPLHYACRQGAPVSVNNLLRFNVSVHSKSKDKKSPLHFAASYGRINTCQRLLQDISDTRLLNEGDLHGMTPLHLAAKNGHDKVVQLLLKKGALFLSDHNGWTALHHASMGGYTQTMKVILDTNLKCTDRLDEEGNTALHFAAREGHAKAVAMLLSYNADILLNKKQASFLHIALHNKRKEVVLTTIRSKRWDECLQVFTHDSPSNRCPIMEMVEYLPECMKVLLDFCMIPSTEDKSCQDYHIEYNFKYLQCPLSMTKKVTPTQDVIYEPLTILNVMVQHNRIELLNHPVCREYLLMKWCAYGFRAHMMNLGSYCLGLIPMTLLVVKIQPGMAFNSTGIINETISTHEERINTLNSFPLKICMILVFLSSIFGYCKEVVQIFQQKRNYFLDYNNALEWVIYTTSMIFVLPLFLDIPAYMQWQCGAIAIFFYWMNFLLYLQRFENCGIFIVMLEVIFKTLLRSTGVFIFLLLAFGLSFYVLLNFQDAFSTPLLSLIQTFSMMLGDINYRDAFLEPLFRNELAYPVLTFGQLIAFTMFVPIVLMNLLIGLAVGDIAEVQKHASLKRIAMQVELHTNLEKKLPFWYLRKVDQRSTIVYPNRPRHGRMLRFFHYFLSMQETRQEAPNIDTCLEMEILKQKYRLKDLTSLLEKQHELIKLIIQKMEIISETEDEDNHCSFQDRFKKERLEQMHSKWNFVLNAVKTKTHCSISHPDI
Chain of human TRPA1 (O75762 whole entry): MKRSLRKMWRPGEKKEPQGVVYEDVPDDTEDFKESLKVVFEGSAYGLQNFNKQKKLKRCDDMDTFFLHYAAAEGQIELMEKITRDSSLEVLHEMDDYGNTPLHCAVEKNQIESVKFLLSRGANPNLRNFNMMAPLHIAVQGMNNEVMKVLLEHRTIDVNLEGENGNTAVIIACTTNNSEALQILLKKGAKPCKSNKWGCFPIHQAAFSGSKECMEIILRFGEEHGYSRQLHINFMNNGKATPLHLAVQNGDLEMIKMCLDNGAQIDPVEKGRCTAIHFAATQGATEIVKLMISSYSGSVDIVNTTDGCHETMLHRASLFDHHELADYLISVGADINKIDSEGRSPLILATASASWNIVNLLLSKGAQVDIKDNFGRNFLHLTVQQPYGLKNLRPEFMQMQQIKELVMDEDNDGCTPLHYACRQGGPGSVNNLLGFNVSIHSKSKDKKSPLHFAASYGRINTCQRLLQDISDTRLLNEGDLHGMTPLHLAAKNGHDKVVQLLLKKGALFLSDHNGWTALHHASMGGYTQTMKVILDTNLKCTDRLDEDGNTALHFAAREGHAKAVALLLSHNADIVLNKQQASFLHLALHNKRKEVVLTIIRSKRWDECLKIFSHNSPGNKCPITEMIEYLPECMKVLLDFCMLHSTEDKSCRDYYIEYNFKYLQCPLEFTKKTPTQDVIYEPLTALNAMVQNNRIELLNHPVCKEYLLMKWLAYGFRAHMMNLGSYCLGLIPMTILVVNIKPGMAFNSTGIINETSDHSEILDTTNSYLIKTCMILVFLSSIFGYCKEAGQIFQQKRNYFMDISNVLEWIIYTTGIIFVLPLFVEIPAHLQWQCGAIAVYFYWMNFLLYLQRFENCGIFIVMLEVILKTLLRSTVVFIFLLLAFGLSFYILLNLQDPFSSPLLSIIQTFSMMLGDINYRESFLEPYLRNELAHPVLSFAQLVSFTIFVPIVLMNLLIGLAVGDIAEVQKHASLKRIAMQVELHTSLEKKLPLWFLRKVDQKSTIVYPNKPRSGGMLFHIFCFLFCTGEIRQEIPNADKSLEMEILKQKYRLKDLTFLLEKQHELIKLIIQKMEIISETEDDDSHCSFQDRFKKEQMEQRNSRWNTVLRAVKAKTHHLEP

Broadly, the IC50 is the concentration at which inhibition is half-maximal. For `CC(C)n1c(=O)c(CNC(=O)[C@@H]2CCCN2S(=O)(=O)c2cc3ccccc3o2)cn(-c2ccc(C(F)(F)F)cc2)c1=O` [Example 1, (2S)-1-(benzofuran-2-ylsulfonyl)-N-[[3-isopropyl-2,4-dioxo-1-[4-(trifluoromethyl)phenyl]pyrimidin-5-yl]methyl]pyrrolidine-2-carboxamide], the “AITC-induced increase in the blood flow” value on TRPA1 channel (FIG. 1, rats, doses 0.3, 1 and 3 mg/kg) is “suppressed”. Also, the “rat blood flow model (% inh.)” value on TRPA1 channel (dose 0.3 mg/kg) came to 45 % inh; at TRPA1 channel (dose 1 mg/kg), 56 % inh; on TRPA1 channel (dose 3 mg/kg) it was 58 % inh. The concentration for half-maximal inhibition (IC50) at human TRPA1 came to 16 nM. As to `CC(C)n1cc(CNC(=O)[C@@H]2CCCN2S(=O)(=O)c2cc3cc(F)ccc3o2)cc(-c2ccc(C(F)(F)F)nc2)c1=O` [Example 49, (2S)-1-(5-fluorobenzofuran-2-yl)sulfonyl-N-[[1-isopropyl-6-oxo-5-[6-(trifluoromethyl)-3-pyridyl]-3-pyridyl]methyl]pyrrolidine-2-carboxamide], the IC50 on human TRPA1 was found to be 45 nM. The same measure, in the same setting: to `CC(C)n1c(=O)c(CNC(=O)[C@@H]2CCCN2S(=O)(=O)c2cc3ccccc3o2)cn(-c2ccc(Cl)cc2)c1=O` [Example 40, (2S)-1-(benzofuran-2-ylsulfonyl)-N-[[1-(4-chlorophenyl)-3-isopropyl-2,4-dioxo-pyrimidin-5-yl]methyl]pyrrolidine-2-carboxamide] belongs 85 nM. On to `CC(C)n1cc(-c2ccc(C(F)(F)F)nc2)cc(CNC(=O)[C@@H]2CCCN2S(=O)(=O)c2cc3ccccc3o2)c1=O` [Example 28, (2S)-1-(benzofuran-2-ylsulfonyl)-N-[[1-isopropyl-2-oxo-5-[6-(trifluoromethyl)-3-pyridyl]-3-pyridyl]methyl]pyrrolidine-2-carboxamide], for which the IC50 on human TRPA1 was determined as 180 nM. On to `CC(C)n1cc(-c2ccc(C(F)(F)F)nc2)cc(CNC(=O)[C@@H]2CCCN2S(=O)(=O)c2cc3cc(F)ccc3o2)c1=O` [Example 37, (2S)-1-(5-fluorobenzofuran-2-yl)sulfonyl-N-[[1-isopropyl-2-oxo-5-[6-(trifluoromethyl)-3-pyridyl]-3-pyridyl]methyl]pyrrolidine-2-carboxamide], for which the IC50 at human TRPA1 was found to be 31 nM. On the same count and under the same terms, next, `CC(C)n1c(=O)c(CNC(=O)[C@@H]2CCCN2S(=O)(=O)c2cc3cc(F)ccc3o2)cn(-c2ccc(C(F)(F)F)cc2)c1=O` [Example 3, (2S)-1-(5-fluorobenzofuran-2-yl)sulfonyl-N-[[3-isopropyl-2,4-dioxo-1-[4-(trifluoromethyl)phenyl]-pyrimidin-5-yl]methyl]pyrrolidine-2-carboxamide]: 7.3 nM. Regarding `CC(C)n1c(=O)c(CNC(=O)C2(NS(=O)(=O)c3cc4cc(F)ccc4o3)CC2)cn(-c2ccc(C(F)(F)F)cc2)c1=O` [Example 26], the IC50 on human TRPA1 came out at 250 nM. In the case of `CC(C)n1cc(CNC(=O)[C@@H]2CCCN2S(=O)(=O)c2cc3c(F)cccc3o2)cc(-c2ccc(C(F)(F)F)cc2)c1=O` [Example 45, (2S)-1-(4-fluorobenzofuran-2-yl)sulfonyl-N-[[1-isopropyl-6-oxo-5-[4-(trifluoromethyl)phenyl]-3-pyridyl]methyl]pyrrolidine-2-carboxamide], the IC50 at human TRPA1 came out at 86 nM. Consider `CC(C)n1c(=O)c(CNC(=O)[C@@H]2[C@@H](O)CCN2S(=O)(=O)c2cc3cc(F)ccc3o2)cn(-c2ccc(C(F)(F)F)nc2)c1=O` [Example 31, (2S,3S)-1-(5-fluorobenzofuran-2-yl)sulfonyl-3-hydroxy-N-[[3-isopropyl-2,4-dioxo-1-[6-(trifluoromethyl)-3-pyridyl]pyrimidin-5-yl]methyl]pyrrolidine-2-carboxamide], for which the IC50 at human TRPA1 was found to be 380 nM.
